Patent US12030824B2 (priority 2016, dated 2024)
Entries after “also recorded” stand apart in the source; their conditions may differ.

Legend:
plant growth = test: Applicant's observation of plant growth induction by 1-octen-3-ol; assay type: in vivo; conditions: very low concentrations
[1] = test system: root knot nematode, Meloidgyne javanica; test: Split-root greenhouse trial on tomato with root knot nematode (Nemlab); assay type: in vivo; conditions: for overall effectiveness in nematode control: split-root greenhouse trial; for Number of Eggs/Root System, Pot 1—nem. alone (of split root system) / Numbers of female nematodes/root, Pot 1—nem. alone (of split root system) / Galling Index, Pot 1—nem. alone (of split root system) / Number of Eggs/Root System, Pot 2—agent + nematode (of split root system) / Numbers of female nematodes/root, Pot 2—agent + nematode (of split root system) / Galling Index, Pot 2—agent + nematode (of split root system): tomato split root; for Number of Eggs/Root System, Pot 1—nem. alone (of split root system) / Numbers of female nematodes/root, Pot 1—nem. alone (of split root system): root half with M. javanica only; for Galling Index, Pot 1—nem. alone (of split root system): root half with M. javanica only (systemic), scale 0 no galls to 5 100% of roots with galls; for Number of Eggs/Root System, Pot 2—agent + nematode (of split root system) / Numbers of female nematodes/root, Pot 2—agent + nematode (of split root system) / Galling Index, Pot 2—agent + nematode (of split root system): root half with M. javanica plus agent; for Galling Index, Pot 2—agent + nematode (of split root system): scale 0 no galls to 5 100%
Protocol: Comprehensive evaluation of the strains in greenhouse trials. […] It is difficult to obtain statistically valid results directly on nematode control from natural infestations since the levels of nematodes differ widely on a microsite level. Therefore, controlled greenhouse tests were conducted with Nemlab, a company in South Africa who specializes in nematode control testing. This trial was designed to consider mechanisms as well as direct contact control. As noted earlier, induction of systemic resistance was considered highly desirable, and would be expected given the generalized mechanisms of action described in Example 3, FIG. 8. To assess this character, tomato plants were grown for 6 weeks and then the roots were split into two, and each half root was placed into a separate pot with a single shoot. Except for water controls, 500-1000 eggs of the root knot nematode, Meloidgyne javanica were placed into each root system, but only one side, the various treatments were placed the biocontrol agents at 10^8 cfu/g soil. So, one root system of each plant contained nematodes only while the other contained nematodes plus the treatments. The treatments are shown below; there were six replicates per treatment. […] The experiment was designed to evaluate the ability of each strain to directly control (pot 2) and to control at-a-distance, the nematodes. […] There were a number of evaluations made of the plants at the end of the experiment, and the most important are shown below in Table 4 ([…] Index). Root galling is an index of the formation of 'knots' on roots that give root knot nematode its name and is an index of the root damage. The galls are the areas where the nematode is infesting the root and laying its eggs. The scale=0, no galls, 1, visible galling, 2, 25% of roots with galls, 3, 50% of roots with galls, 4, 75%, and 5, 100%.

White flies = test: Control of white flies on greenhouse tomatoes with OPB+microbial strains; assay type: in vivo, Bremia spp.; conditions: single spray
[2] = test system: cabbage aphid Brevicoryne brassicae; test: Control of aphids on cabbage, single spray; assay type: in vivo; conditions: white flies on tomato and cabbage aphids on cabbage
maize = test: ABM trials and field testing of commercial products and strains on corn; assay type: in vivo
corn (Zea mays) = test: Corn field trial ABM14 (1st field trial), seed treatments; assay type: in vivo; conditions: both ABM14 and ABM15 studies
[3] = test system: plant parasitic nematodes; test: Field trials with sunflowers in South Africa, root galling; assay type: in vivo; conditions: sunflower, naturally infested field, FIG. 12
Protocol: Field trials with sunflowers in the field in South Africa. Trials were conducted in the Republic of South Africa. Sunflower seeds were treated with various microorganisms and planted into soil infested with plant parasitic nematodes. After the plants were mature, roots were harvested and rated for root galling caused by the nematodes. The variability was quite large in this naturally infested field.

corn = test: Corn trials in the greenhouse, seed treatment; assay type: in vivo; conditions: FIG. 2
From the text: Corn trials in the greenhouse. […] The growth differences are clearly evident.

wheat = test: Greenhouse wheat seedlings, foliar spray; assay type: in vivo; conditions: foliar spray vs water only; FIG. 3
From the text: Trichoderma strain K5 increases growth in greenhouse grown wheat when applied as a foliar treatment. […] Control plants were sprayed with water only.

soybean = test: Greenhouse soybean in sand tubes, seed treatment; assay type: in vivo; conditions: stem length, Spad, root weight, root volume; FIG. 4; significant at alpha=0.05 or 0.01
Protocol: Trichoderma strain K5 increases growth in soybean in the greenhouse when applied as a seed treatment. Soybean seeds were treated with either T. virens NRRL B-5025 strain or left untreated with no other microbial or chemical treatments being applied. These were planted into sand tubes and growth data was collected as the seeds emerged and the seedlings grew. […] All of the differences shown in FIG. 4 are significant at alpha=0.05 or 0.01.

nematodes = test: Field trial in Iowa in a field heavily infested with nematodes: yields; conditions: Iowa nematode-infested field

`C=CC(O)CCCCC` (stereo not shown) [1-octen-3-ol] was tested, and the “induction of plant growth” value (plant growth) was “potent inducer of enhanced plant growth”.
For “Bacillus amyloliquifaciens [Bacillus AS2]”, the “overall effectiveness in nematode control” value [1] was “nearly as good an effect”, the “Number of Eggs/Root System, Pot 1—nem. alone (of split root system)” value [1] was 2481 and the “Numbers of female nematodes/root, Pot 1—nem. alone (of split root system)” value [1] was 14.67. For the same molecule, the “Galling Index, Pot 1—nem. alone (of split root system)” value (from here on “Galling Index, Pot 1—nem. alone”) [1] was 2.3, the “Number of Eggs/Root System, Pot 2—agent + nematode (of split root system)” value [1] was 970 and the “Numbers of female nematodes/root, Pot 2—agent + nematode (of split root system)” value [1] was 8.16. For the same molecule, the “Galling Index, Pot 2—agent + nematode (of split root system)” value (from here on “Galling Index, Pot 2—agent + nematode”) [1] was 2.0, the “duration of white fly control” value (White flies) was “effects continued at least three weeks” and the “conclusion from the combined two experiments” value (“conclusion” below) [2] was “highly effective”.
With “T. virens strain ATCC 20906 [Trichoderma K1]” the “Number of Eggs/Root System, Pot 1—nem. alone (of split root system)” value [1] was 45631, the “Numbers of female nematodes/root, Pot 1—nem. alone (of split root system)” value [1] was 25.17 and the “Galling Index, Pot 1—nem. alone” value [1] was 3.33. The “Number of Eggs/Root System, Pot 2—agent + nematode (of split root system)” value [1] was 48765, the “Numbers of female nematodes/root, Pot 2—agent + nematode (of split root system)” value [1] was 35.7 and the “Galling Index, Pot 2—agent + nematode” value [1] was 3.17. For the same molecule, the “duration of white fly control” value (White flies) was “effects continued at least three weeks”, the “conclusion” value [2] was “highly effective” and the “impact on corn in field testing” value (maize) was “negative impact on corn”.
For “Trichoderma gamsii (NRRL B-50520) [Trichoderma K5]”, the “overall effectiveness in nematode control” value [1] was “most effective treatment”, the “Number of Eggs/Root System, Pot 1—nem. alone (of split root system)” value [1] was 1298 and the “Numbers of female nematodes/root, Pot 1—nem. alone (of split root system)” value [1] was 4.0. For the same molecule, the “Galling Index, Pot 1—nem. alone” value [1] was 1.3, the “Number of Eggs/Root System, Pot 2—agent + nematode (of split root system)” value [1] was 493 and the “Numbers of female nematodes/root, Pot 2—agent + nematode (of split root system)” value [1] was 8.5. For the same molecule, the “Galling Index, Pot 2—agent + nematode” value [1] was 2.17, the “duration of white fly control” value (White flies) was “effects continued at least three weeks” and the “conclusion” value [2] was “highly effective”. The “grain yields” value (corn (Zea mays)) was “largest grain yields”, the “root galling index” value [3] was “lowest numerical galling index of the biological treatments” and the “growth of corn plants” value (corn) was “improved growth and development”. The “growth of wheat seedlings” value (wheat) was “clearly larger and more vigorous; also recorded: significant growth increase”, the “soybean seedling growth” value (soybean) was “significantly increase soybean seedling growth” and the “yield performance” value (nematodes) was “excellent performance”.
